# Data: the supplement of paper PMC12137928
# Structures can show the parent of a compound that is named as a salt.
# Test system: HCT116
# Details: 72 h
# How it was run: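 In 1536-well plates, 250 HCT116 cells per well were seeded and left for 5 h to attach. Luminescence from CellTiter-Glo was set against vehicle (0%) and positive control (-100%), and pattern correction was applied. IC50 and maximal efficacy come from four-parameter Hill fitting.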
IC50 cell viability (ICRF193 0 nM) [µM],IC50 cell viability (ICRF193 200 nM) [µM],SMILES
> 45.8,> 45.8,COC(=O)N(C)c1c(N)nc(-c2nn(Cc3ccccc3F)c3ncccc23)nc1N [Riociguat]
> 45.8,> 45.8,CC(=O)N(CC(O)CN(C(C)=O)c1c(I)c(C(=O)NCC(O)CO)c(I)c(C(=O)NCC(O)CO)c1I)c1c(I)c(C(=O)NCC(O)CO)c(I)c(C(=O)NCC(O)CO)c1I (stereo not given) [Iodixanol]
> 45.8,> 45.8,Nc1ccc(S(=O)(=O)Nc2nccs2)cc1 [Sulfathiazole]
> 45.8,> 45.8,CCCCCCCCCCCCCCCC(=O)OC[C@@H](O)[C@H]1OC[C@H](O)[C@H]1O [Sorbitan monohexadecanoate]
> 45.8,> 45.8,CCOc1ccccc1OC(c1ccccc1)C1CNCCO1 (stereo not given) [Reboxetine mesylate]
> 45.8,> 45.8,CCN(CCO)CCCC(C)Nc1ccnc2cc(Cl)ccc12 (stereo not given) [Hydroxychloroquine sulfate]
> 45.8,> 45.8,NS(=O)(=O)c1cc2c(cc1Cl)NC(C1CC3C=CC1C3)NS2(=O)=O (stereo not given) [Cyclothiazide]
> 45.8,> 45.8,C=CCCCCCCCCC(=O)[O-].C=CCCCCCCCCC(=O)[O-].[Zn+2] [ZINC UNDECYLENATE]
> 45.8,> 45.8,C=CCOc1ccccc1OCC(O)CNC(C)C (stereo not given) [Oxprenolol hydrochloride]
> 45.8,> 45.8,C#C[C@]1(O)CC[C@H]2[C@@H]3CCC4=CC(=NO)CC[C@@H]4[C@H]3CC[C@@]21CC [Norgestimate metabolite Norelgestromin]
> 45.8,> 45.8,c1ccc2[nH]c(-c3cscn3)nc2c1 [Thiabendazole]
> 45.8,> 45.8,COc1ccc(O)cc1 [4-Methoxyphenol]
> 45.8,> 45.8,CCCCOc1ccc(C(=O)CCN2CCCCC2)cc1 [Dyclonine hydrochloride]
> 45.8,> 45.8,NC(N)=Nc1nc(CSCC/C(N)=N/S(N)(=O)=O)cs1 [Famotidine]
> 45.8,> 45.8,CCn1nc(C(=O)O)c(=O)c2cc3c(cc21)OCO3 [Cinoxacin]
> 45.8,> 45.8,C[C@H](CS)C(=O)N1CCC[C@H]1C(=O)O [Captopril]
> 45.8,> 45.8,CNC[C@@H]1CC[C@@H](N)[C@@H](O[C@H]2[C@H](O)[C@@H](O[C@H]3OC[C@](C)(O)[C@H](NC)[C@H]3O)[C@H](N)C[C@@H]2N)O1 [Micronomicin sulfate]
> 45.8,> 45.8,CC(C)C[C@H]1C(=O)O[C@H](Cc2ccc(N3CCOCC3)cc2)C(=O)N(C)[C@@H](CC(C)C)C(=O)O[C@H](C)C(=O)N(C)[C@@H](CC(C)C)C(=O)O[C@H](Cc2ccc(N3CCOCC3)cc2)C(=O)N(C)[C@@H](CC(C)C)C(=O)O[C@H](C)C(=O)N1C [Emodepside]
> 45.8,> 45.8,Cc1nc(NS(=O)(=O)c2ccc(N)cc2)nc(C)c1Br [Sulfabromomethazine]
> 45.8,> 45.8,CC(C(=O)O)c1ccc2c(c1)[nH]c1ccc(Cl)cc12 (stereo not given) [Carprofen]
> 45.8,> 45.8,CCCCC(CC)CCC(CC(C)C)OS(=O)(=O)O (stereo not given) [SODIUM TETRADECYL SULFATE]
> 45.8,> 45.8,O=C(NC1CCN(CCc2c[nH]c3ccccc23)CC1)c1ccccc1 [Indoramin hydrochloride]
> 45.8,> 45.8,CC[N+](C)(CC)CCOC(=O)C1c2ccccc2Oc2ccccc21 [Methantheline bromide]
> 45.8,> 45.8,CO[C@@]1(NC(=O)C(C(=O)O)c2ccc(O)cc2)C(=O)N2C(C(=O)O)=C(CSc3nnnn3C)CO[C@@H]21 (stereo not given in full) [Moxalactam disodium]
> 45.8,> 45.8,O=C(OOC(=O)c1ccccc1)c1ccccc1 [Benzoyl peroxide]
> 45.8,> 45.8,CC[C@@H]1CCN[C@H](C(=O)N[C@@H]([C@H]2O[C@H](SC)[C@H](O)[C@@H](O)[C@H]2O)[C@H](C)Cl)C1 [Pirlimycin Hydrochloride]
> 45.8,> 45.8,CCOC(=O)COc1ccc2c(=O)cc(-c3ccccc3)oc2c1 [EFLOXATE]

IC50 cell viability (ICRF193 0 nM) [µM],IC50 cell viability (ICRF193 200 nM) [µM],SMILES
> 45.8,> 45.8,Cc1ccccc1OCC(O)CO (stereo not given) [Mephenesin]
> 45.8,> 45.8,C[N+](C)(C)C1CCC(CC2CCC([N+](C)(C)C)CC2)CC1 (stereo not given) [Mebezonium Iodide]
> 45.8,> 45.8,CCCC[C@@H](O)/C=C(C)/C=C/C=C/C(=O)N1CCCC1=O [Variotin]
> 45.8,> 45.8,Cc1oc(-c2ccccc2)nc1CCOc1ccc(CC2C(=O)NOC2=O)cc1 (stereo not given) [JTT-501]
> 45.8,> 45.8,NS(=O)(=O)c1ccc(N2CCCCS2(=O)=O)cc1 [Sulthiame]
> 45.8,> 45.8,C[C@]12C=CC(=O)C=C1CC[C@@H]1[C@@H]2[C@@H](O)C[C@@]2(C)[C@H]1CC[C@]2(O)C(=O)COC(=O)c1cccc(S(=O)(=O)O)c1 [Predocol]
> 45.8,> 45.8,CCCNC(=O)NS(=O)(=O)c1ccc(Cl)cc1 [Chlorpropamide]
> 45.8,> 45.8,CCCCC1=NC2(CCCC2)C(=O)N1Cc1ccc(-c2ccccc2-c2nnn[nH]2)cc1 [Irbesartan]
> 45.8,> 45.8,"COc1cc(OC)cc(OC)c1 [1,3,5-Trimethoxybenzene]"
> 45.8,> 45.8,CCCCCCCCCC(=O)OCCN1CCN(CC/C=C2\c3ccccc3Sc3ccc(C(F)(F)F)cc32)CC1 [FLUPENTIXOL DECANOATE]
> 45.8,> 45.8,CC1(C)[C@@H](O[C@H]2O[C@H](C(=O)O)[C@@H](O)[C@H](O)[C@H]2O[C@@H]2O[C@H](C(=O)O)[C@@H](O)[C@H](O)[C@H]2O)CC[C@]2(C)[C@H]3C(=O)C=C4[C@@H]5C[C@@](C)(C(=O)O)CC[C@]5(C)CC[C@@]4(C)[C@]3(C)CC[C@@H]12 [Ammonium Glycyrrhizinate]
> 45.8,> 45.8,CS(=O)(=O)c1ccc([C@@H](O)[C@@H](CO)NC(=O)C(Cl)Cl)cc1 [Thiamphenicol]
> 45.8,> 45.8,CN(C)CCN1C(=O)c2ccccc2N(C)c2ccccc21 [Dibenzepin hydrochloride]
> 45.8,> 45.8,O=C(O)c1ccc(NC(=O)[C@H](Cc2ccc(O)cc2)NC(=O)c2ccccc2)cc1 [Bentiromide sodium]
> 45.8,> 45.8,O=C1OC2(c3ccccc31)c1cc(I)c(O)c(I)c1Oc1c2cc(I)c(O)c1I [Erythrosin B]
> 45.8,> 45.8,COc1ccccc1Oc1c(NS(=O)(=O)c2ccc(C(C)(C)C)cc2)nc(-c2ncccn2)nc1OCCO [Bosentan]
> 45.8,> 45.8,CC1=C(C)C(=O)C(C(CCCCCC(=O)O)c2ccccc2)=C(C)C1=O (stereo not given) [Seratrodast]
> 45.8,> 45.8,O=P(O)(O)C(O)(Cn1ccnc1)P(=O)(O)O [Zoledronic acid monohydrate]
> 45.8,> 45.8,CN(C)c1cc(NC(=O)CNC(C)(C)C)c(O)c2c1C[C@H]1C[C@H]3[C@H](N(C)C)C(O)=C(C(N)=O)C(=O)[C@@]3(O)C(O)=C1C2=O [Tigecycline]
> 45.8,> 45.8,CNC[C@H](O)c1ccc(O)c(O)c1 [Epinephrine]
> 45.8,> 45.8,CN[C@@H]1[C@H](O[C@H]2[C@H](O[C@H]3[C@H](O)[C@@H](O)[C@H](NC(=N)N)[C@@H](O)[C@@H]3NC(=N)N)O[C@@H](C)[C@]2(O)CO)O[C@@H](CO)[C@H](O)[C@H]1O [DIHYDROSTREPTOMYCIN [5mM]]
> 45.8,> 45.8,CCNC(=O)NCCCOc1cccc(CN2CCCCC2)c1 [Dalcotidine]
> 45.8,> 45.8,Cc1ccc(Cl)c(Nc2ccccc2C(=O)O)c1Cl [Meclofenamate sodium]
> 45.8,> 45.8,NS(=O)(=O)c1cc2c(cc1Cl)NC(Cc1ccccc1)NS2(=O)=O (stereo not given) [Benzylhydrochlorothiazide]
> 45.8,> 45.8,CCN(CC)CCCC(C)Nc1ccnc2cc(Cl)ccc12 (stereo not given) [Chloroquine]
> 45.8,> 45.8,c1ccc(CC2=NCCN2)cc1 [Tolazoline hydrochloride]
> 45.8,> 45.8,CC(=O)N(CC(=O)N(C)C)c1ccccc1 [Phenylacetylglycine dimethylamide]

SMILES,IC50 cell viability (ICRF193 0 nM) [µM],IC50 cell viability (ICRF193 200 nM) [µM]
O=C(O)Cc1ccccc1 [Phenylacetic acid],> 45.8,> 45.8
Cc1cccc([C@H](C)c2c[nH]cn2)c1C [Dexmedetomidine],> 45.8,> 45.8
NCC(O)c1ccc(O)cc1 (stereo not given) [Octopamine],> 45.8,> 45.8
Oc1ccccc1-c1ccccc1 [Sodium 2-phenylphenate tetrahydrate],> 45.8,> 45.8
CN1[C@H]2CC[C@@H]1[C@@H](C(=O)O)[C@@H](OC(=O)c1ccccc1)C2 [Benzoylecgonine],> 45.8,> 45.8
CC(C)=CC1C(C(=O)OCc2cccc(Oc3ccccc3)c2)C1(C)C (stereo not given) [Phenothrin],> 45.8,> 45.8
